The source of these data is PubChem BioAssay (NCI).

SMILES strings stand for the structures. “And” between values parts separate entries of the source, which are not always exact repeats. Equal values may be shown once.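 Dose response: 5 concentrations. Exposure: 48 h. Format: 96-well plates. Endpoint: linear interpolation; highest concentration if not reached. GI50 marks 50% less growth. At the TGI there is no net growth.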 Some results are limits rather than exact numbers.

Holding throughout (test): NCI anticancer screen, dose series, 48 h
In experiment [1] the test system is OVCAR-8 ovarian.
The subject of experiment [2] is NCI-H226 lung.
The test system of experiment [3] is UACC-257 melanoma.
The subject of experiment [4] is NCI-H522 lung.
Experiment [5] concerns UACC-62 melanoma.
The test system of experiment [6] is MCF7 breast.
Experiment [7] relates to BT-549 breast.

Regarding `Nc1nn2c(nc(N)c3c(N)[nH]nc32)c1N=Nc1ccc(Br)cc1`, the TGI in experiment [1] is over 97.1 µM; in experiment [2], over 100 µM; in experiment [3], over 100 µM; in experiment [4], 76.9 µM; in experiment [5], over 100 µM; in experiment [6], over 100 µM. In experiment [7], this compound yielded a TGI of 15.5 µM.
For `N#Cc1c(-c2ccccc2)[nH]c(=O)n(C2OC(CO)C(O)C(O)C2O)c1=O` (stereo not drawn), the TGI in experiment [1] was over 100 µM; in experiment [2] it was over 100 µM; in experiment [3], over 100 µM; in experiment [4], 63.5 µM and > 100 µM; in experiment [5] it was over 100 µM; in experiment [6] it was over 100 µM. Moreover, in experiment [7], the TGI is over 100 µM. In addition, the GI50 in experiment [2] is > 100 µM and 45.4 µM; in experiment [4], 27.6 µM and > 100 µM.
With `CC(=O)OC[C@@H](OC(C)=O)[C@H](OC(C)=O)[C@@H]1OC(C)(C)O[C@@H]1C1SCCCS1`, the TGI in experiment [1], in experiment [3], in experiment [4], in experiment [5], in experiment [6] and in experiment [7] was over 100 µM in each case.
Consider `O=C(CNc1ccccc1[N+](=O)[O-])Nn1c(-c2ccccc2)nc2ccccc2c1=O`, for which the TGI in experiment [1] is over 100 µM; in experiment [2] it was 93 µM; in experiment [3], over 10 µM; in experiment [4] it was over 10 µM; in experiment [5], 23.4 µM; in experiment [6] it was 34.2 µM. In experiment [7], the TGI turned out to be 35.3 µM.
As for `O=[N+]([O-])c1cc2c(cc1/C=N/n1c(CO)nc3ccccc31)OCO2`, the TGI in experiment [1], in experiment [2], in experiment [3], in experiment [5], in experiment [6] and in experiment [7] was over 100 µM throughout.
Turning to `Nc1nc(N)c2cc(NCc3ccc(Cl)c(Cl)c3)ccc2n1`, the GI50 in experiment [2] is 1.53 µM; in experiment [3] it was 1.71 µM; in experiment [4], 1.31 µM; in experiment [5] it was 1.39 µM; in experiment [6], 1.36 µM. In addition, the TGI in experiment [2] was found to be 3.14 µM; in experiment [3], 3.22 µM; in experiment [4] it was 2.77 µM; in experiment [5] it was 2.7 µM; in experiment [6] it was 2.75 µM.
With `NC1=CN2c3ccccc3N(CC(=O)O)C2C=C1` (stereo not drawn), the TGI in experiment [1], in experiment [2], in experiment [3], in experiment [5], in experiment [6] and in experiment [7] was over 100 µM each time.
On to `O=C(NCc1cccc2ccccc12)N/N=C\c1ccc(Cl)cc1`, for which the TGI in experiment [1], in experiment [2], in experiment [3], in experiment [4], in experiment [5] and in experiment [6] was over 100 µM in each case. Further, the TGI in experiment [7] is over 100 µM.
For the compound `O=S(=O)(/N=C(\NO)Nc1ccc(Cl)cc1)c1cccc2nsnc12`, the TGI in experiment [1] was over 100 µM; in experiment [2], over 100 µM; in experiment [3], over 100 µM; in experiment [4], 28.9 µM; in experiment [5], 53.1 µM; in experiment [7], 83.9 µM.
Take `COc1ccc(OC)c(NS(=O)(=O)c2ccc3nc(C)n(NS(=O)(=O)c4cc(OC)ccc4OC)c(=O)c3c2)c1`: the TGI in experiment [1], in experiment [2], in experiment [3], in experiment [4], in experiment [5] and in experiment [6] was over 100 µM in each case. The compound further displayed a TGI in experiment [7] of over 100 µM.
On to `CCOC(=O)CC(=O)Nc1cccc2[nH]cnc12`, for which the TGI in experiment [1], in experiment [2], in experiment [3], in experiment [5], in experiment [6] and in experiment [7] was over 100 µM throughout.
Take `COc1ccc(CN=C(N)N)c2ccccc12`: the TGI in experiment [1], in experiment [2], in experiment [3], in experiment [4], in experiment [5] and in experiment [6] was over 100 µM in each case.
For the compound `CCNC(=O)c1c(O)c2ccccc2[nH]c1=O`, the TGI in experiment [1], in experiment [2], in experiment [3], in experiment [4], in experiment [6] and in experiment [7] was over 100 µM in each case.
As for `COc1cc2c(cc1OC)C1(COc3cc(O)c(O)c(O)c3C1=O)C2` (stereo not drawn), the TGI in experiment [1] was over 50 µM; in experiment [2], over 50 µM; in experiment [3], over 50 µM; in experiment [4], over 50 µM; in experiment [5], over 50 µM; in experiment [6] it was 41.1 µM.
Regarding `COc1cc2cc(C(=O)N3CC(CCl)c4c3cc(N)c3ccccc43)[nH]c2c(OC)c1OC` (stereo not drawn), the TGI in experiment [1] is under 0.01 µM; in experiment [2] it was 1.13 µM; in experiment [4], under 0.01 µM; in experiment [5], under 0.01 µM.
Turning to `CCOC(=O)/C(C#N)=C/c1ccnc2ccccc12`, the TGI in experiment [1] was 57 µM; in experiment [2] it was over 100 µM; in experiment [3], over 100 µM; in experiment [4], over 100 µM; in experiment [5] it was over 100 µM; in experiment [7], over 100 µM.
On to `NNC(=O)c1nnn(CCc2ccccc2)c1C(=O)NN`, for which the TGI in experiment [1], in experiment [3], in experiment [6] and in experiment [7] was over 100 µM throughout.
`FC(F)(F)c1cccc(-c2nc3ccccc3c3c2[C@@]2(N4CCCC4)CCCC[C@@H]32)c1`: the TGI in experiment [2] was over 100 µM; in experiment [3] it was over 100 µM; in experiment [4], 31.8 µM; in experiment [5], 56.3 µM; in experiment [6], 62.8 µM.
In the case of `N#Cc1c(-c2ccccc2)c(N=Nc2ccc(Cl)cc2)c(=O)n2c1[nH]c1ccccc12`, the TGI in experiment [1], in experiment [2], in experiment [3], in experiment [4], in experiment [6] and in experiment [7] was over 100 µM throughout.
As to `COC(=O)[C@H](Cc1c[nH]c2ccccc12)NC(=O)c1ccc(CNC(=O)/C=C/c2cccc(Oc3ccccc3)c2)cc1`, the TGI in experiment [1] is over 100 µM; in experiment [2], over 100 µM; in experiment [3], 40.3 µM; in experiment [5], over 100 µM; in experiment [6], over 100 µM; in experiment [7], over 100 µM.
As for `CC1=NN(c2nc(N)nc(CC#N)n2)C(C)(C)C1`, the TGI in experiment [1], in experiment [2], in experiment [3], in experiment [5], in experiment [6] and in experiment [7] was over 100 µM throughout.
For `S=C(c1c[nH]c2ccccc12)N1CCN(Cc2ccccc2)CC1`, the TGI came out at 43.7 µM in experiment [1]; 35.9 µM in experiment [2]; 50.9 µM in experiment [3]; 33.7 µM in experiment [5]; 46.7 µM in experiment [6]; 32.4 µM in experiment [7].
Take `CCOC(=O)CNc1nc(=O)c2c(=O)oc(Cl)cc2o1`: the TGI in experiment [1] is 23.2 µM; in experiment [2] it was over 100 µM; in experiment [3], 38.4 µM; in experiment [4], 17.3 µM; in experiment [5], 39.9 µM.
As to `COc1ccc(C2SCC(=O)N2NC(=O)c2ccc(NC(C)=O)cc2)cc1` (stereo not drawn), the TGI in experiment [1], in experiment [2], in experiment [3], in experiment [5], in experiment [6] and in experiment [7] was over 100 µM throughout.
With `O=C1CC(c2cccc(Br)c2)n2cccc21` (stereo not drawn), the TGI in experiment [1], in experiment [2], in experiment [3], in experiment [4], in experiment [5] and in experiment [6] was over 100 µM throughout.
As to `Cc1ccc2oc(=O)c(C(=O)Nc3nc(C45CC6CC(CC(C6)C4)C5)cs3)cc2c1`, the TGI in experiment [1], in experiment [2], in experiment [3], in experiment [4], in experiment [6] and in experiment [7] was over 100 µM each time.
As for `C[N+]1(CCCl)CC[N+](C)(CCCl)CC1` (stereo not drawn), the TGI in experiment [1], in experiment [2], in experiment [3], in experiment [5], in experiment [6] and in experiment [7] was over 100 µM throughout.
For the compound `C=CCO[C@]1(CC=C)C(=O)C(=O)OC1C1COC(C)(C)O1` (stereo partly drawn), the TGI was 81.6 µM in experiment [1]; over 100 µM in experiment [2]; over 100 µM in experiment [3]; 43.6 µM in experiment [4]; 42 µM in experiment [6].
On to `CCOC(=O)c1sc2[n+](c1C)C(=O)/C(=C/c1ccc([N+](=O)[O-])cc1)S2`, for which the TGI was 69.9 µM in experiment [1]; 58.4 µM in experiment [2]; 98 µM in experiment [3]; 40.3 µM in experiment [5]; 62.6 µM in experiment [6].
In the case of `Nc1ccc(C(=O)c2cn(CCN3CCOCC3)c3ccccc23)c2ccccc12`, the TGI in experiment [1] was 52.7 µM; in experiment [3], over 100 µM; in experiment [4], over 100 µM; in experiment [5], over 100 µM; in experiment [6], over 100 µM; in experiment [7], 58.3 µM.
Regarding `Cc1ccc(/C(O)=C/c2nc3ccccc3s/c2=N/CS(=O)(=O)c2ccc(C)cc2)cc1`, the TGI in experiment [1], in experiment [3], in experiment [4], in experiment [5], in experiment [6] and in experiment [7] was over 10 µM each time.
Regarding `O=[N+]([O-])c1ccc(C=NCC2CCCN3CCCCC23)cc1` (stereo not drawn), the TGI was over 100 µM in experiment [1]; over 100 µM in experiment [3]; over 100 µM in experiment [4]; over 100 µM in experiment [5]; 66.6 µM in experiment [6]; over 100 µM in experiment [7].
In the case of `CC1C2(C)OC(=N)C(C#N)(C(c3cccc([N+](=O)[O-])c3)O2)C1(C#N)C#N` (stereo not drawn), the TGI in experiment [1] was over 100 µM; in experiment [2], over 100 µM; in experiment [3], 49.6 µM; in experiment [5], 42.7 µM; in experiment [6], 50.2 µM; in experiment [7], over 100 µM.
On to `Cc1cc(S(=O)(=O)Nc2nc(N)nc(N(C)C)n2)c(SCC(=O)O)cc1Cl`, for which the TGI in experiment [1], in experiment [2], in experiment [3], in experiment [4], in experiment [6] and in experiment [7] was over 10 µM each time.
As for `CCOP(=O)(OCC)C(C#N)Cc1ccco1` (stereo not drawn), the TGI in experiment [1], in experiment [2], in experiment [3], in experiment [5], in experiment [6] and in experiment [7] was over 10 µM each time.
As to `COc1c(O)cc2c(c1O)C(=O)/C(=C/c1ccc(O)cc1)CO2`, the TGI in experiment [1] was 39.6 µM; in experiment [3], over 100 µM; in experiment [4] it was 33.8 µM; in experiment [5], 40 µM; in experiment [6], over 100 µM; in experiment [7], over 100 µM.
On to `CC(=O)OCC1OC(Oc2cc(C)c(O)cc2C/C=C(\C)CC/C=C(\C)CC(=O)CC(C)C)C(O)C(OC(C)=O)C1OC(C)=O` (stereo not drawn), for which the TGI in experiment [1] was over 50 µM; in experiment [3], 31.7 µM; in experiment [4], over 50 µM; in experiment [5], 39.1 µM; in experiment [6], 43.8 µM; in experiment [7], 31.2 µM.
Take `C=C1C(=O)O[C@H]2[C@@H](O)[C@H](C)CCC[C@]3(C)O[C@H]3CC[C@@]3(C)O[C@@H]3C[C@@H]12`: the TGI in experiment [1] worked out at 13.4 µM; in experiment [2], 14.5 µM; in experiment [4], 2.85 µM; in experiment [5] it was 8.8 µM; in experiment [6] it was 7.87 µM; in experiment [7] it was 4.5 µM.
Regarding `CC(=O)N=C1N(/C=C2\C(=O)Oc3ccccc3C2=O)C(=O)/C(=C/c2ccc(NC(C)=O)cc2)N1C`, the TGI in experiment [1], in experiment [2], in experiment [3], in experiment [4], in experiment [5] and in experiment [6] was over 100 µM throughout.
Consider `CN(C)C(=O)OC(Cn1cncn1)(Cn1cncn1)c1ccc(Cl)cc1Cl`, for which the TGI in experiment [1], in experiment [2], in experiment [3], in experiment [4], in experiment [6] and in experiment [7] was over 100 µM each time.
